Earlier results as cited in patent US10485789B2, “Compositions and methods for targeting receptors expressed in the gut” (Sensor Pharmaceuticals, Inc., priority 2014, dated 2019).

Tested on: DSS injury model
Conditions: mice pretreated with antibiotics

## O=C(O)c1cccnc1 [niacin]
  effect in the DSS injury model: dramatic effect
